Measured values from ChEMBL document CHEMBL5724558, “Image-based profiling of drug vulnerabilities in CRC organoids” (2024).
Several values for one entry are separate records, joined by “and”; a condition that tells them apart may be missing. Equal values may be shown once.

Key:
Format in all cases: functional, Homo sapiens
Design in all cases: dose or concentration left out as unconfirmed
Colon cancer organoid [1] = assay: Image-based profiling of donated chemical probes and chemogenomic kinase set in O21 CRC organoid. Image analysis is performed on the sum area metric, and the data were normalized to the DMSO control. After imaging the organoid viability is measured using the OneGloEX Luciferase Assay System. The normalized viability data and sum area are reported.
Colon cancer organoid [2] = assay: Image-based profiling of donated chemical probes and chemogenomic kinase set in O06 CRC organoid. Image analysis is performed on the sum area metric, and the data were normalized to the DMSO control. After imaging the organoid viability is measured using the OneGloEX Luciferase Assay System. The normalized viability data and sum area are reported.
Colon cancer organoid [3] = assay: Image-based profiling of donated chemical probes and chemogenomic kinase set in O09 CRC organoid. Image analysis is performed on the sum area metric, and the data were normalized to the DMSO control. After imaging the organoid viability is measured using the OneGloEX Luciferase Assay System. The normalized viability data and sum area are reported.

Structure (SMILES) | Cell Viability (Colon cancer organoid [1]; Replication number 1) | Cell Viability (Colon cancer organoid [1]; Replication number 2) | Cell Viability (Colon cancer organoid [2]; Replication number 1) | Cell Viability (Colon cancer organoid [2]; Replication number 2) | Cell Viability (Colon cancer organoid [3]; Replication number 1) | Cell Viability (Colon cancer organoid [3]; Replication number 2)
Cl.Cl.Cl.c1ccc(N2CCN(Cc3nc4ccccc4[nH]3)CC2)nc1 | 123.058% and 103.622% | 81.1139% and 93.8775% | 75.342% and 94.3794% | 106.955% and 116.079% | 118.127% and 116.353% | 87.0048% and 88.7915%
CCC(=O)N[C@H]1CC[C@@H](C(=O)N(C)c2ccc(-c3nc4ccccc4o3)cc2)C1 [BI 99179] | 140.434% and 105.951% | 114.409% and 97.9592% | 21.7258% and 60.1874% | 30.1767% and 66.0942% | 70.0522% and 46.8277% | 52.7511% and 35.3414%
O=C(NCc1ccccc1)c1ccc(S(=O)(=O)NCc2ccccc2)cc1 | 112.801% and 110.51% | 91.6281% and 94.6419% | 187.548% and 135.666% | 115.38% and 119.884% | 92.4038% and 93.7908% | 103.22% and 86.1192%
Cc1cc(C)cc([C@@H]2c3cc(C)ccc3NC(=O)CN2C(=O)c2ccc(Br)s2)c1 | 115.521% and 108.165% | 94.8359% and 62.8282% | 111.534% and 83.1141% | 141.021% and 89.6176% | 106.396% and 98.9954% | 263.199% and 111.182%
N#CN1CC[C@H](C(=O)Nc2nc3c(s2)CN(C(=O)CN=[N+]=[N-])CC3)C1 [8RK64] | 96.0935% and 89.4871% | 85.4285% and 89.7349% | 79.1245% and 96.1943% | 91.4374% and 108.602% | 73.5983% and 85.3445% | 74.3628% and 83.6638%
Cc1cnc(-c2cc(Cl)ccc2F)cc1-n1c(=O)n(CC(N)=O)c2ccccc21 [Al11] | 94.0699% and 103.674% | 91.9117% and 97.8926% | 119.898% and 115.628% | 113.033% and 103.316% | 78.4595% and 96.5987% | 101.459% and 100.317%
Cn1c(=O)[nH]c2cc(N3C(=O)c4cccc5c(CCCO)ccc(c45)C3=O)ccc21 | 119.202% and 111.104% | 123.504% and 100.955% | 78.0892% and 58.7114% | 114.692% and 105.151% | 172.196% and 101.777% | 101.158% and 94.3617%
O=C1NC(c2ccccn2)Sc2ccccc21 (configuration not stated) [BTZO-4] | 96.9189% and 94.3079% | 102.382% and 84.6939% | 80.1051% and 90.1639% | 101.963% and 109.92% | 89.6903% and 76.6923% | 179.626% and 125.593%
O=C(Nc1cccnn1)N1CC(C/C=C/c2cncc(Oc3ccc(C(F)(F)F)cn3)n2)C1 | 91.4572% and 89.6507% | 96.356% and 80.102% | 109.538% and 100.234% | 99.7432% and 110.394% | 144.17% and 108.229% | 154.84% and 92.5885%
CCN(Cc1ccc(Cl)cc1)c1ncc(C(=O)NCCCN2CCCC2=O)c(NC2CCCC2)n1 | 106.065% and 92.3751% | 124.526% and 113.344% | 89.2777% and 109.917% | 114.236% and 99.6728% | 161.079% and 96.7604% | 165.307% and 110.619%
Cc1c(N2CCCC2)nc2ccc(Br)cc2c1C(=O)NC[C@H](CCC(=O)O)c1ccccc1Cl [BAY-6672] | 101.261% and 132.048% | 101.473% and 100.952% | 80.703% and 111.012% | 84.0903% and 90.3412% | 62.7098% and 89.8462% | 112.488% and 108.842%
CN(C)CCOc1ccc(-c2nc(-c3ccncc3)c(-c3ccc4c(c3)CC/C4=N\O)[nH]2)cc1 [SB590885] | 87.754% and 100.348% | 97.8507% and 97.8769% | 179.76% and 135.095% | 115.548% and 114.756% | 91.6254% and 70.3132% | 62.6087% and 63.1686%
Cc1nc(N2CC[C@H](O)C2)ncc1-c1cc(C(F)(F)F)cc2[nH]ncc12 | 102.375% and 86.1578% | 90.0065% and 80.6122% | 99.241% and 111.944% | 84.0147% and 88.1256% | 63.142% and 75.4977% | 55.6466% and 44.9799%
O=c1nc(-c2ccccn2)sc2ccccc12 [BTZO-1] | 137.995% and 94.89% | 98.0739% and 81.1225% | 100.751% and 107.26% | 110.744% and 103.05% | 107.798% and 116.353% | 106.736% and 92.2965%
CCC(=O)N[C@@H]1CC[C@H](C(=O)N(C)c2ccc(-c3nc4ccccc4o3)cc2)C1 [BI 99990] | 98.1271% and 82.0828% | 97.1544% and 80.6122% | 114.692% and 101.874% | 112.935% and 105.893% | 148.115% and 99.6283% | 106.898% and 85.8708%
COc1ccccc1-c1cc(Nc2cccc(CS(N)(=O)=O)c2)ncn1 | 89.4274% and 95.331% | 104.034% and 107.665% | 93.0282% and 99.0402% | 104.398% and 112.494% | 75.7277% and 70.3132% | 83.1557% and 105.011%
Cc1cc2c(-c3ccco3)cnc(N[C@@H]3CCN(C)C[C@H]3C(=O)NC3CCCCC3)c2[nH]c1=O [GSK789] | 106.004% and 111.859% | 101.857% and 104.521% | 45.8732% and 77.9757% | 46.7874% and 82.8928% | 34.6914% and 67.3378% | 49.9263% and 76.5266%
C[C@H](c1ccc(F)cc1)N(Cc1ccc(Cl)c(C(=O)O)c1)C(=O)c1cnc2ccccc2c1 [PF-05257137] | 104.015% and 83.2471% | 99.7446% and 91.3265% | 112.636% and 114.286% | 58.4583% and 44.0628% | 171.765% and 153.146% | 140.713% and 101.643%
CC(=O)Nc1ncc(CN2CCC[C@H](Cc3cc(C)nc(C)c3)C2)s1 [JNJ-65355394] | 79.2381% and 103.709% | 88.6271% and 113.344% | 89.0088% and 111.578% | 103.026% and 113.793% | 144.44% and 104.679% | 146.748% and 114.826%
Clc1cc2c(NC3CCCC3)nnc(-c3ccncc3)c2cc1Cl | 113.128% and 118.158% | 77.3442% and 110.621% | 62.2011% and 99.302% | 123.043% and 92.9634% | 139.675% and 109.428% | 148.163% and 121.159%
Cc1cccc(-c2cnc3occ(-c4ccc(C(=O)O)c(C5CCCC5)c4)c3c2)c1 | 122.241% and 115.611% | 124.793% and 91.2416% | 91.6718% and 109.086% | 100.62% and 106.871% | 143.367% and 90.8211% | 122.111% and 97.0079%
Cc1cc2c(-c3ccco3)cnc(N[C@H]3CCN(C)C[C@@H]3C(=O)NC3CCCCC3)c2[nH]c1=O [GSK791] | 103.348% and 100.946% | 100.095% and 111.149% | 106.466% and 102.024% | 100.388% and 101.634% | 46.4952% and 92.4722% | 100.727% and 114.988%
